Results on 22 compounds are retold here after patent US8642642B2, “Heterocyclic arylsulphones suitable for treating disorders that respond to modulation of the serotonin 5HT6 receptor” (Abbott Laboratories, priority 2006, dated 2014).

For orientation: Ki means the equilibrium dissociation constant of an inhibitor or competing ligand from its target. A lower Ki goes with a stronger hold on the target.

One experiment has as its target T1, human 5-HT6 receptor (Homo sapiens, UniProt P50406).
T1 construct: expressed in transfected cells
As to the kind of experiment: Human 5-HT6 receptor binding assay (3H-LSD displacement). The following applies: membranes from HEK-293 cells, 2 nM 3H-LSD. How it is done:
(§1) The substance to be tested was either dissolved in methanol/Chremophor® (BASF-AG) or in dimethyl sulfoxide and then diluted with water to the desired concentration.
The compounds were dissolved in a concentration of 10^−2 M or 10^−3 M in DMSO. Further dilutions were performed in incubation buffer.
The procedure for the binding assay was based on the method of Monsma et al. (1993) Mol Pharmacol 43: 320-327. The binding reaction was carried out in a total volume of 0.250 ml for 60 min at 37° C. Membranes from HEK-293 cells stably expressing the human 5-HT6 receptor were incubated with 2 nM ^3H-LSD in the presence or absence of various concentrations of test compound for 60 min at 37° C. Non-specific binding was defined with 100 μM Serotonin (5-HT). Assays were performed in duplicate. Bound and free radioligand was separated by filtration and bound radioactivity determined by liquid scintillation counting.
The specific ligand binding to the receptors was defined as the difference between the total binding and the nonspecific binding determined in the presence of an excess of unlabelled 5-HT. The results are expressed as a percent of control specific binding obtained in the presence of compound. The IC50 values (concentration causing a half-maximal inhibition of control specific binding) and Hill coefficients (nH) were determined by non-linear regression analysis of the competition curves using Hill equation curve fitting.
The inhibition constants (Ki) were calculated from the Cheng Prusoff equation (Ki=IC50/(1+(L/KD)), where L=concentration of radioligand in the assay, and KD=affinity of the radioligand for the receptor).

Experiment [1] addresses T2, human dopamine D3 receptors (Homo sapiens, UniProt P35462).
T2 construct: expressed in transfected cells
The experiment is described as follows: Dopamine D3 receptor binding ([125I]-iodosulpride). The note with it: for Ki: membranes from HEK-293 cells, 0.1 nM [125I]-iodosulpride; for Ki(D2)/Ki(D3): ratio of receptor binding constants, D2L versus D3. How it is done: as §1
Each assay mixture was run in triplicate.
The incubation buffer contained 50 mM tris, 120 mM NaCl, 5 mM KCl, 2 mM CaCl2, 2 mM MgCl2 and 0.1% bovine serum albumin, 10 μM quinolone and 0.1% ascorbic acid (prepared fresh daily). The buffer was adjusted to pH 7.4 with HCl.
After having been incubated at 25° C. for 60 minutes, the assay mixtures were filtered through a Whatman GF/B glass fiber filter under vacuum using a cell collecting device. The filters were transferred to scintillation viols using a filter transfer system. After 4 ml of Ultima Gold® (Packard) have been added, the samples were shaken for one hour and the radioactivity was then counted in a Beta-Counter (Packard, Tricarb 2000 or 2200CA). The cpm values were converted into dpm using a standard quench series and the program belonging to the instrument.
The inhibition curves were analyzed by means of iterative nonlinear regression analysis using the Statistical Analysis System (SAS) which is similar to the “LIGAND” program described by Munson and Rodbard.

SMILES strings stand for the structures. Structures can show the parent of a compound that is named as a salt.

T2 sequence (P35462 whole entry): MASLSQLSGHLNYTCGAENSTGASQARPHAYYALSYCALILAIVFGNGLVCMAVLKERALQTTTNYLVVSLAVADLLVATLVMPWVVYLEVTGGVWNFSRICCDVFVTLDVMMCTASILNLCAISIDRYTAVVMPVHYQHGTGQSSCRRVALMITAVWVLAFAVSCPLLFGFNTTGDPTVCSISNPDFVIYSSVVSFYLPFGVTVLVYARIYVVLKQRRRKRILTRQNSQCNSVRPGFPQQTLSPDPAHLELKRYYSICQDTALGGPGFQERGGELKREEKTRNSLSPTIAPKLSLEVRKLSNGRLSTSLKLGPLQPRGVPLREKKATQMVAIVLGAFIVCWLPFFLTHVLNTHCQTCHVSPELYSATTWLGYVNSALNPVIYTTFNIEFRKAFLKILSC
T1 sequence (P50406 whole entry): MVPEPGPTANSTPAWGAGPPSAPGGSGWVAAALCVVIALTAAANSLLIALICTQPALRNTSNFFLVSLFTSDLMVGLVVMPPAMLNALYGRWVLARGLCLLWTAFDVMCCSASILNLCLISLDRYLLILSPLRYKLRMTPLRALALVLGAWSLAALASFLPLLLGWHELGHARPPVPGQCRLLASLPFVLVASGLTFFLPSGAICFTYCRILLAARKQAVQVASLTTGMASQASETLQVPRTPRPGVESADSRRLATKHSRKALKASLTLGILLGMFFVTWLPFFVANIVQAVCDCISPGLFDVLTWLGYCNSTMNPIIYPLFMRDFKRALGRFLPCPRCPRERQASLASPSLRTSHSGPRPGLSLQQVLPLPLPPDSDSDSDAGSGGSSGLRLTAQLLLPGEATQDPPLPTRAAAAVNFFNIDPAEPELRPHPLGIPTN

For `CCCN1CC[C@@H](c2ccc(NS(=O)(=O)c3ccc(-c4csnn4)s3)cc2)C1.Cl` [Example 75, 5-[1,2,3]Thiadiazol-4-yl-thiophene-2-sulfonic acid [4-((S)-1-propyl-pyrrolidin-3-yl)-phenyl]-amide hydrochloride], at human 5-HT6 receptor, the Ki was 10 to 50 nM. Also, in experiment [1], the Ki lay in the range of 10 to 50 nM; the “Ki(D2)/Ki(D3)” value is “+ (between 10 and 50)”.
Consider `CCCN1CC[C@@H](c2ccc(NS(=O)(=O)c3ccc(F)c(Br)c3F)cc2)C1.Cl` [Example 86, 3-Bromo-2,4-difluoro-N-[4-((S)-1-propyl-pyrrolidin-3-yl)-phenyl]-benzenesulfonamide hydrochloride], for which the inhibition constant (Ki) at human 5-HT6 receptor was in the range of 10 to 50 nM. In addition, in experiment [1], the Ki was in the range of 1 to 10 nM; the “Ki(D2)/Ki(D3)” value is “++ (between 50 and 100)”.
In the case of `CCCN1CC[C@@H](c2ccc(NS(=O)(=O)c3ccc(Cl)s3)cc2)C1` [Example 62, 5-Chloro-thiophene-2-sulfonic acid [4-((S)-1-propyl-pyrrolidin-3-yl)-phenyl]-amide], the Ki at human 5-HT6 receptor fell in the range of 1 to 10 nM. Besides, in experiment [1], the inhibition constant Ki was in the range of 1 to 10 nM and the “Ki(D2)/Ki(D3)” value is listed as “++++ (>150)”.
`CCCN1CC[C@@H](c2ccc(NS(=O)(=O)c3cccc(-c4csc(C)n4)c3)cc2)C1` [Example 99, 3-(2-Methyl-thiazol-4-yl)-N-[4-((S)-1-propyl-pyrrolidin-3-yl)-phenyl]-benzenesulfonamide] came in with an inhibition constant (Ki) at human 5-HT6 receptor of 1 to 10 nM. Besides, in experiment [1], the Ki lay in the range of 50 to 150 nM; the “Ki(D2)/Ki(D3)” value was “+ (between 10 and 50)”.
For the compound `CCCN1CC[C@@H](c2ccc(NS(=O)(=O)c3ccc(C)s3)cc2)C1.Cl` [Example 90, 5-Methyl-thiophene-2-sulfonic acid [4-((S)-1-propyl-pyrrolidin-3-yl)-phenyl]-amide hydrochloride], the Ki on human 5-HT6 receptor is 1 to 10 nM. In experiment [1], the Ki lay within 1 to 10 nM and the “Ki(D2)/Ki(D3)” value is “++++ (>150)”.
The compound `CCCN1CC[C@@H](c2ccc(NS(=O)(=O)c3cccc(N4CCCC4)c3)cc2)C1` [Example 71, N-[4-((S)-1-Propyl-pyrrolidin-3-yl)-phenyl]-3-pyrrolidin-1-yl-benzenesulfonamide] showed an inhibitory constant (Ki) on human 5-HT6 receptor of 1 to 10 nM. Besides, in experiment [1], the Ki fell in the range of 10 to 50 nM; the “Ki(D2)/Ki(D3)” value is “+ (between 10 and 50)”.
`CCCN1CC[C@@H](c2ccc(NS(=O)(=O)c3cccc(F)c3)cc2)C1.O=C(O)C(F)(F)F` [Example 97, 3-Fluoro-N-[4-((S)-1-propyl-pyrrolidin-3-yl)-phenyl]-benzenesulfonamide trifluoroacetate]: at human 5-HT6 receptor, the inhibition constant (Ki) lay within 1 to 10 nM. Besides, in experiment [1], the Ki fell in the range of 10 to 50 nM; the “Ki(D2)/Ki(D3)” value is “++ (between 50 and 100)”.
`CCCN1CC[C@@H](c2ccc(NS(=O)(=O)c3ccc(Br)s3)cc2)C1.Cl` [Example 59, 5-Bromo-thiophene-2-sulfonic acid [4-((S)-1-propyl-pyrrolidin-3-yl)-phenyl]-amide hydrochloride] registered a Ki at human 5-HT6 receptor of 1 to 10 nM. Further, in experiment [1], the Ki was in the range of 1 to 10 nM; the “Ki(D2)/Ki(D3)” value was “+++ (between 100 and 150)”.
In turn, `CCCN1CC[C@@H](c2ccc(NS(=O)(=O)c3ccc(F)c(C(F)(F)F)c3)cc2)C1` [Example 102, 4-Fluoro-N-[4-((S)-1-propyl-pyrrolidin-3-yl)-phenyl]-3-trifluoromethyl-benzenesulfonamide] returned a Ki at human 5-HT6 receptor of 10 to 50 nM. In experiment [1], the Ki was 10 to 50 nM; the “Ki(D2)/Ki(D3)” value was “++ (between 50 and 100)”.
In the case of `CCCN1CC[C@@H](c2ccc(NS(=O)(=O)c3cccc(Br)c3)cc2)C1` [Example 70, 3-Bromo-N-[4-((S)-1-propyl-pyrrolidin-3-yl)-phenyl]-benzenesulfonamide], the inhibition constant Ki on human 5-HT6 receptor fell in the range of 1 to 10 nM. Also, in experiment [1], the inhibitory constant (Ki) was 1 to 10 nM; the “Ki(D2)/Ki(D3)” value was “++ (between 50 and 100)”.
The compound `CCCN1CC[C@@H](c2ccc(NS(=O)(=O)c3cc(F)c(Br)cc3F)cc2)C1` [Example 3, 4-Bromo-3,6-difluoro-N-[4-((S)-1-propyl-pyrrolidin-3-yl)-phenyl]-benzenesulfonamide] yielded an inhibition constant Ki on human 5-HT6 receptor of 10 to 50 nM. In experiment [1], the inhibition constant Ki was in the range of 1 to 10 nM; the “Ki(D2)/Ki(D3)” value is “+++ (between 100 and 150)”.
Consider `CCCN1CC[C@@H](c2ccc(NS(=O)(=O)c3ccc(-c4csc(C)n4)s3)cc2)C1` [Example 78, 5-(2-Methyl-thiazol-4-yl)-thiophene-2-sulfonic acid [4-((S)-1-propyl-pyrrolidin-3-yl)-phenyl]-amide], for which the Ki at human 5-HT6 receptor was 1 to 10 nM; in experiment [1], below 1 nM.
As for `CCCN1C[C@@H](CF)[C@H](c2ccc(NS(=O)(=O)c3cccc(C(F)(F)F)c3)cc2)C1` (relative stereo) [Example 95, N-[4-(trans-4-Fluoromethyl-1-propyl-pyrrolidin-3-yl)-phenyl]-3-trifluoromethyl-benzenesulfonamide], the Ki is 1 to 10 nM on human 5-HT6 receptor and 10 to 50 nM in experiment [1]. Further, the “Ki(D2)/Ki(D3)” value in experiment [1] was “+ (between 10 and 50)”.
In turn, `Cl.O=S(=O)(Nc1ccc([C@@H]2CCNC2)cc1)c1ccc(-c2ccccn2)s1` [Example 69, 5-Pyridin-2-yl-thiophene-2-sulfonic acid ((S)-4-pyrrolidin-3-yl-phenyl)-amide hydrochloride] registered a Ki at human 5-HT6 receptor of 10 to 50 nM. In experiment [1], the Ki fell in the range of 10 to 50 nM; the “Ki(D2)/Ki(D3)” value was “+++ (between 100 and 150)”.
On human 5-HT6 receptor, `CCCN1CC(c2ccc(NS(=O)(=O)c3cccc(Br)c3)cc2)C1` [Example 52, 3-Bromo-N-[4-(1-propyl-azetidin-3-yl)-phenyl]-benzenesulfonamide] registered an inhibitory constant (Ki) of 10 to 50 nM.
The same measure, in the same setting: the same measure for `O=S(=O)(Nc1cccc([C@@H]2CCN(Cc3ccccc3)C2)c1)c1cccc(C(F)(F)F)c1` [Example 65, N-[3-((S)-1-Benzyl-pyrrolidin-3-yl)-phenyl]-3-trifluoromethyl-benzene sulfonamide]: 10 to 50 nM; for `CCCN1CC[C@@H](c2ccc(NS(=O)(=O)c3cccc([C@H](C)C(F)F)c3)cc2)C1` [Example 34, 3-((S)-2,2-Difluoro-1-methyl-ethyl)-N-[4-((S)-1-propyl-pyrrolidin-3-yl)-phenyl]-benzenesulfonamide]: 10 to 50 nM.
On the same count and under the same terms, the same measure for `O=S(=O)(Nc1ccc(C2CNC2)cc1)c1cccc(C(F)(F)F)c1` [Example 11, N-(4-Azetidin-3-yl-phenyl)-3-trifluoromethyl-benzenesulfonamide]: 1 to 10 nM.
The same measure, in the same setting: the same measure for `CCCN1CC(c2ccc(NS(=O)(=O)c3cc(C)ccc3C)cc2)C1` [Example 43, 2,5-Dimethyl-N-[4-(1-propyl-azetidin-3-yl)-phenyl]-benzenesulfonamide]: 10 to 50 nM.
In turn, `CCCN1C[C@H](c2ccc(NS(=O)(=O)c3cccc(C(F)(F)F)c3)cc2)C[C@H]1C` [Example 94, N-[4-((3S,5R)-5-Methyl-1-propyl-pyrrolidin-3-yl)-phenyl]-3-trifluoromethyl-benzenesulfonamide hydrochloride] yielded an inhibition constant Ki on human 5-HT6 receptor of 10 to 50 nM.
On human 5-HT6 receptor, `COc1cccc(S(=O)(=O)Nc2cccc(C3CNC3)c2)c1` [Example 25, N-(3-Azetidin-3-yl-phenyl)-3-methoxy-benzenesulfonamide] gave an inhibition constant (Ki) of 1 to 10 nM.
Still for that read-out and setting: the same measure for `COc1ccc(C)cc1S(=O)(=O)Nc1cccc(C2CNC2)c1` [Example 22, N-(3-Azetidin-3-yl-phenyl)-2-methoxy-5-methyl-benzenesulfonamide]: 1 to 10 nM.
